# Data from US7579432B2, “Cyclic peptides as G-protein-coupled receptor antagonists” (Promics Pty Limited, priority 2001, dated 2009).
# Legend:
# [1] = test system: dermal Arthus reaction; assay: Reverse passive dermal Arthus reaction in the rat; assay type: in vivo; settings: intravenous, oral and topical
# [2] = test system: gut ischemia-reperfusion; assay: Intestinal ischemia-reperfusion injury in rats
# Experimental: Female Wistar rats (250-300 g, n=132) were fasted and given only water for 12 h prior to all experiments. Animals were anaesthetised by the intraperitoneal injection of 80 mg kg^−1 ketamine and 10 mg kg^−1 xylazine and throughout the procedure rats were placed on a heating pad to maintain normal body temperature. […] A non-traumatic occlusive device for the artery was fashioned from a silk suture looped though a length of polyethylene tubing. The SMA was occluded by applying traction to the ends of the loop. […] (1) in 5% ethanol or sterile, pyrogen-free saline in 0-2 ml volume. Infusions were made over a 2 min period. […] (1) (0.3, 1, 10 mg kg^−1) was achieved by gavage (0.2 ml saline in 25% ethanol) 60 min prior to SMA occlusion. Intestinal ischemia was induced by clamping the SMA for 30 min, after which the occlusive suture was removed, then reperfusion was monitored for another 120 min. Sham-operated rats were treated in an identical fashion, with the omission of vascular occlusion, and were infused with 0.2 ml of sterile, pyrogen-free saline or gavaged with 0.2 ml of saline in 25% ethanol. Blood samples (50 μL) were collected into heparinised Eppendorf tubes at regular intervals over the 180 min duration of the experiments for the estimation of PMN numbers. In a different series of identical experiments, whole blood was collected at regular intervals over the 180 min and allowed to clot on ice, and serum or plasma samples collected and stored at −20° C. for later measurement of tumour necrosis factor-α (TNF-α), haptoglobin (Hp) and aspartate aminotransferase (AST) concentrations. At the end of the 120 min reperfusion period, the animals were euthanased with an overdose of pentobarbital A section of the occluded ileum was removed, the lumen rinsed with saline, and the intestine was blotted dry, then weighed. Specimens were dried in an oven for 24 hours at 80° C. to obtain the tissue dry weight. Intestinal oedema was determined by assessing the wet and dry tissue weight ratio. Additionally, segments of both ischaemic and normal intestine were harvested and rinsed with saline and immediately fixed in 10% buffered formaldehyde-saline for histological studies.
# Blood (50 μL) for PMN counts was placed into heparinised tubes and then layered over an equal volume of Histopaque 1083 (Sigma, U.S.A.), PMNs were isolated and cell number counted on a haemocytometer. Concentrations of PMN's values are presented as mean percentage±SEM of the values obtained immediately prior to SMA occlusion.
# Serum TNF-α concentrations were measured using an enzyme-linked immunosorbent assay, (OptEIA, Pharmingen, USA), according to the manufacturers instructions. Concentrations of TNF-α in serum samples were determined by linear regression analysis from the standard curve.
# Plasma AST (AST/GOT; Sigma, USA) concentrations were measured according to manufacturers instructions within 48 h of collecting plasma. Plasma AST concentrations were derived from calibration curve. Results are expressed in Sigma-Franke (SF) units/ml.
# Specimens were fixed in 10% formaldehyde-saline, embedded in paraffin wax, sectioned serially, and stained with haematoxylin and eosin. Tissues were read and scored by a trained observer in a blinded fashion. The degree of intestinal tissue injury was determined using a previously described graded scale ranging from 0-8 (Chiu et al., 1970).
# [3] = test system: neutropenia caused by i.v. LPS; assay: LPS-induced neutropenia (endotoxaemia model); assay type: in vivo, rat; settings: topical in 50% DMSO/50% H2O, 60 min before LPS 1 mg/kg i.v.
# Experimental: The in vivo pharmacological properties of cyclic antagonists were examined following topical dermal administration. A model of endotoxaemia was used, in which 1 mg/kg Escherichia coli […] (LPS; serotype 55:B5, Sigma, USA, stored at 100 mg ml^−1 in dH2O, 4° C.), was injected i.v into a rat, resulting in acute changes in circulating PMN levels and blood pressure. These parameters were measured in the presence and absence of C5aR antagonists (1 mg/kg i.v or 50 mg/kg/rat topically). […] Female Wistar rats weighing between 200-250 g were used for in vivo testing of all C5a receptor antagonists. Rats were anaesthetized using the procedure described above, and transferred on to a heating pad to ensure that body temperature was maintained throughout the experiment. A catheter was inserted in the femoral vein, secured with a suture and flushed with 100 μL of heparinised saline. […] All agents infused i.v were injected over a 2 min period, and were followed with a subsequent injection of 100 μL of saline to ensure complete delivery of the drug. Whole blood samples (0.1 mL) were collected from the tail vein at the time of drug and LPS or C5a administration. Samples were collected at −15, 0, 5, 10, 15, 30, 60, 90, 120 and 150 min relative to the injection of LPS (zero time), and placed in tubes containing heparin (500 Units/mL). To isolate PMNs, 100 μL of blood was layered on to 200 μL of Histopaque 1077 (Sigma U.S.A.) solution and centrifuged at 400×g for 30 min min at room temperature (25° C.). The supernatant layer of platelet-rich plasma, the monocyte and lymphocyte interface and the separation layer of Histopaque were removed and discarded, leaving the PMN and red blood-cell rich layer. […] The number of PMNs was counted on a haemocytometer. The number of cells at each time point was calculated as a percentage of the total number of cells at time zero, prior to complement challenge or LPS. […] Circulating PMN levels were monitored for 150 min following LPS injection, and the percentage change in PMN levels from zero time, when LPS was injected, was calculated.
compound,measurement,setting,value
"CC(=O)N[C@@H](Cc1ccccc1)C(=O)N[C@H]1CCCNC(=O)[C@H](CCCNC(=N)N)NC(=O)[C@H](Cc2c[nH]c3ccccc23)NC(=O)[C@@H](CC2CCCCC2)NC(=O)[C@@H]2CCCN2C1=O [Compound 1, Ac-Phe-[Orn-Pro-dCha-Trp-Arg]]",vascular leakage associated with a dermal Arthus reaction,[1]; FIG. 1,inhibition
same,rise in circulating TNFα associated with a dermal Arthus reaction,[1]; FIG. 2,inhibition
same,ischemia-reperfusion induced neutropenia,[2]; 1 mg/kg i.v. and 10 mg/kg p.o.,significantly inhibited
same,gut ischemia-reperfusion induced plasma aspartate aminotransferase,"[2]; 1 mg/kg i.v. and 1,10 mg/kg",significantly reduced
same,gut ischemia-reperfusion induced tissue damage (histopathology),"[2]; 1 mg/kg i.v. and 1,10 mg/kg",significantly reduced
same,increase in serum haptoglobin levels,"[2]; 1 mg/kg i.v. and 1,10 mg/kg p.o.",significantly inhibited
same,change in serum TNF-α levels,[2]; 1 mg/kg i.v. and 1-10 mg/kg p.o.,completely inhibited
same,ischemia-reperfusion induced neutropenia,[2]; 1 mg/kg p.o.,no inhibition
same,neutropenia response to i.v. LPS,[3],inhibited the neutropenia response
